Earlier results in patent publication US20030232787A1, “Combinations of an endothelin receptor antagonist and an antiepileptic compound having pain alleviating properties or analgesic” (priority 2002, published 2003).
Square brackets hold non-standard residues; d marks the D form. Peptide text beside a SMILES is read from it.

Key:
[1] = system: rat model of diabetic neuropathy; settings: Jarvis et al. 2000; cited from earlier work
[2] = system: mouse model of inflammation and hyperalgesia; settings: Piovezan et al. 2000; cited from earlier work
[3] = system: streptozotocin-induced static allodynia; settings: rat; Field et al.; cited from earlier work

With `CCCCN(CCCC)C(=O)CN1C[C@H](c2ccc3c(c2)OCO3)[C@@H](C(=O)O)[C@@H]1c1ccc(OC)cc1` [ABT-627, 2R-(4-Methoxyphenyl)-4S-(1,3-benzodioxol-5-yl)-1-(N,N-di(n-butyl)aminocarbonyl-methyl)-pyrrolidine-3R-carboxylic acid] as the compound, how does the effect on pain [1] read?
The effect on pain was “attenuate pain”.

With `CC(C)C[C@@H]1NC(=O)[C@@H](C(C)C)NC(=O)[C@@H]2CCCN2C(=O)[C@@H](CC(=O)O)NC(=O)[C@@H](Cc2c[nH]c3ccccc23)NC1=O` [BQ-123] (cyclo(L[dW][dD]P[dV])) as the compound, how does the effect on pain [2] read?
Its effect on pain is “alleviate pain”.

For `CC(NC(=O)C(C)(Cc1c[nH]c2ccccc12)NC(=O)OCc1cc2ccccc2o1)c1ccccc1` (stereo not drawn) [[2-(1H-indol-3-yl)-1-methyl-1-(1-phenyl-ethylcarbamoyl)-ethyl]-carbamic acid benzofuran-2-ylmethyl ester], which “effect on maintenance of streptozotocin-induced static allodynia” value [3] is on record?
Its value is “block the maintenance of streptozotocin-induced static allodynia”.
